According to patent publication US10080366B2, “Agent for increasing sugar content in fruit” (RIKEN, priority 2012, dated 2018):
Read-outs that look alike come from different tables or passages of the source.

Columns and labels:
[1] = system: harvested fruit of grape (variety: Barikan); conditions: for Sugar content (%) on date of application (Jun. 2): before application
Description: The fruit of grape was maintained in an air-conditioned greenhouse (temperature: 25° C.), and measured for the mass over time. The sugar content of the fruit was measured before the application and 8 days after the application with a sugar content meter. Next, on the assumption that the change in the mass of the fruit was entirely due to the change in water content, calculated values of the amount of decrease in mass and the sugar content on the date (June 2) of the application were determined […] by using the following calculation formula. (Calculated as follows: the sugar content (%) calculated value))=the sugar content (%) before application×the mass (g) on the date of application/the mass (g) on the date of measurement))

[2] = system: fruit of grape (variety: Red Globe)
Description: An agent for increasing a sugar content in a fruit (containing Sorbon T-20 as a spreader/sticker at a final concentration of 200 μL/L) diluted with water to have a potassium hydrogen carbonate concentration of 10 g/L was prepared. The mass of fruit of grape (variety: Red Globe) purchased on the market was measured. Then, the prepared agent for increasing a sugar content in a fruit was applied by spraying to the fruit of grape. Then, the fruit of grape was allowed to stand in an air-conditioned greenhouse (temperature: 25° C.), and the mass was measured over time (date of application: Apr. 27, 2011; dates of test: May 2, 2011, May 6, 2011, May 9, 2011, May 11, 2011, May 13, 2011, and May 16, 2011). In addition, as a control, the mass of untreated grape was measured on each date of measurement in the same manner.
On the basis of the measured mass, the estimated amount (cumulative value) of transpiration and the estimated amount of transpiration per day were calculated. The results are shown in Tables 5 and 6 and FIGS. 10 and 11.
Note that the vertical axis in FIG. 10 represents the mass (g) of the fruit of grape on each of the dates of measurement per 100 g of the fruit of grape on the date of application, and the vertical axis in FIG. 11 represents the estimated amount (g) of transpiration on each of the dates of measurement per 100 g of the fruit of grape on the date of application. The estimated amount (g) of transpiration on each of the dates of measurement per 100 g of the fruit of grape on the date of application=(the mass (g) of the fruit of grape on the date of application−the mass (g) of the fruit of grape on the date of measurement)/the mass of the fruit of grape on the date of application×100

[3] = system: fruit of grape (variety: Red Globe); conditions: for Sugar content (%) May 16: date of application; for mass of fruit as % of the mass on the date of application: 17 days later; for Sugar content (%) Jun. 2 Calculated value: calculated from decrease in mass
Description: The mass of fruit of grape (variety: Red Globe) purchased on the market was measured. Then, the prepared agents for increasing a sugar content in a fruit were applied by spraying to the fruit of grape, which was then allowed to stand in an air-conditioned greenhouse (temperature: 25° C.). With the mass of the grape on the date of application being 100 g, the mass of the grape after the application was measured over time (date of application: May 16, 2011; dates of test: May 19, May 23, May 27, May 30, and Jun. 2, 2011). Next, on the assumption that the change in mass of the fruit was entirely due to the change in water content, the calculated value of the sugar content was determined from the amount of decrease in mass and the sugar content on the date […] of the application (calculated as follows: “the sugar content (calculated value)=the sugar content (%) on the date of application×the mass (g) on the date of application/the mass (g) on the date of measurement”). In addition, as a control, the mass of untreated grape was measured in the same manner. The results are shown in Tables 7 and 8 and FIGS. 12 to 14.

[4] = system: clusters of grape (variety: Crimson); test: Estimated transpiration ratio of grape clusters (Example 9); type: in vivo; conditions: 10 g/L; 8 days after treatment
[5] = system: Tomato; conditions: 6 days after treatment
[6] = system: Mikan; conditions: 6 days after treatment
[7] = 10 g/L, 25° C., mass 100 g on date of application
[8] = approximately 3 weeks later (19 days later)

Question: With `O=C([O-])[O-].[K+].[K+]` [Potassium carbonate, potassium carbonate] as the molecule, how does the “decrease of mass of fruit in 8 days (June 2 to June 10)” value ([1]; 10 g/L) read?
Answer: 25.56%

Question: What about the “Sugar content (%) 8 days later, actually measured value” ([1]; 10 g/L, 25° C.) of the same molecule?
Answer: 24.5%

Question: What about the “Mass (g) 6 days later (Jun. 8)” value [1, 7] of the same molecule?
Answer: 80.7 g

Question: And the “Mass (g) 8 days later (Jun. 10)” value [1, 7]?
Answer: 74.5 g

Question: And the “action to increase the sugar content in the fruit (comparison)” value ([1]; 10 g/L, 8 days)?
Answer: the best

Question: What about the “Sugar content (%) 8 days later, calculated value” ([1]; 10 g/L, calculated from decrease in mass) of the same molecule?
Answer: 24.2%

Question: And the “Sugar content (%) on date of application (Jun. 2)” value [1]?
Answer: 18.0%

Question: And the “Sugar content (%) on date of application (Jun. 2)” value ([1]; listed as potassium carbonate)?
Answer: 18%

Question: What about the “sugar concentration in the fruit (suggested)” value ([2]; 2 weeks later, assuming 20% on April 27, 20/41.4) of the same molecule?
Answer: exceeded 48%

Question: What about the “Estimated amount (g) of transpiration per 100 g of fruit on date of application” value ([2]; 5 days later) of the same molecule?
Answer: 18.8 g

Question: And the “Mass (g) of fruit per 100 g of fruit on date of application” value (“Mass (g) of fruit per 100 g of fruit” for short) ([2]; 5 days later (applied Apr. 27))?
Answer: 81.2 g

Question: And the “Estimated amount (g) of transpiration per 100 g of fruit on date of application” value ([2]; 9 days later)?
Answer: 31.5 g

Question: What about the “Mass (g) of fruit per 100 g of fruit” value ([2]; 9 days later) of the same molecule?
Answer: 68.5 g

Question: And the “Estimated amount (g) of transpiration per 100 g of fruit on date of application” value ([2]; 12 days later)?
Answer: 40 g

Question: And the “Mass (g) of fruit per 100 g of fruit” value ([2]; 12 days later)?
Answer: 60 g

Question: And the “Estimated amount (g) of transpiration per 100 g of fruit on date of application” value ([2]; 14 days later)?
Answer: 45.8 g

Question: What about the “Mass (g) of fruit per 100 g of fruit” value ([2]; 14 days later) of the same molecule?
Answer: 54.2 g

Question: What about the “Estimated amount (g) of transpiration per 100 g of fruit on date of application” value ([2]; 16 days later) of the same molecule?
Answer: 51.3 g

Question: And the “Mass (g) of fruit per 100 g of fruit” value ([2]; 16 days later)?
Answer: 48.7 g

Question: What about the “Estimated amount (g) of transpiration per 100 g of fruit on date of application” value ([2]; 19 days later) of the same molecule?
Answer: 58.6 g

Question: And the “Mass (g) of fruit per 100 g of fruit” value ([2]; 19 days later)?
Answer: 41.4 g

Question: What about the “mass as % of the mass on the date of application” value [2, 8] of the same molecule?
Answer: 41.4%

Question: What about the “ratio of transpiration of the fruit” value [2, 8] of the same molecule?
Answer: 58.6%

Question: And the “mass relative to mass on the date of application” value ([2]; in 2 weeks)?
Answer: approximately ½

Question: And the “estimated amount of transpiration relative to untreated fruit” value ([2]; in vivo)?
Answer: two times or more of that of the untreated fruit

Question: What about the “Sugar content (%) May 16” value ([3]; 5 g/L group) of the same molecule?
Answer: 17.6%

Question: And the “mass of fruit as % of the mass on the date of application” value ([3]; 5 g/L)?
Answer: 66.6%

Question: And the “mass (g) of the fruit” value ([3]; 5 g/L, Jun. 2)?
Answer: 66.6 g

Question: And the “mass (g) of the fruit” value ([3]; 5 g/L, May 19, 100 g on May 16)?
Answer: 90.8 g

Question: What about the “mass (g) of the fruit” value ([3]; 5 g/L, May 23) of the same molecule?
Answer: 84.5 g

Question: And the “mass (g) of the fruit” value ([3]; 5 g/L, May 27)?
Answer: 77 g

Question: And the “mass (g) of the fruit” value ([3]; 5 g/L, May 30)?
Answer: 72.1 g

Question: What about the “Sugar content (%) Jun. 2 Calculated value” ([3]; 5 g/L) of the same molecule?
Answer: 26.5%

Question: And the “Sugar content (%) May 16” value ([3]; 10 g/L group)?
Answer: 18.2%

Question: And the “mass of fruit as % of the mass on the date of application” value ([3]; 10 g/L)?
Answer: 65%

Question: And the “mass (g) of the fruit” value ([3]; 10 g/L, Jun. 2)?
Answer: 65 g

Question: What about the “mass (g) of the fruit” value ([3]; 10 g/L, May 19, 100 g on May 16) of the same molecule?
Answer: 90.6 g

Question: And the “mass (g) of the fruit” value ([3]; 10 g/L, May 23)?
Answer: 83.9 g

Question: And the “mass (g) of the fruit” value ([3]; 10 g/L, May 27)?
Answer: 75.9 g

Question: What about the “mass (g) of the fruit” value ([3]; 10 g/L, May 30) of the same molecule?
Answer: 70.6 g

Question: And the “Sugar content (%) Jun. 2 Calculated value” ([3]; 10 g/L)?
Answer: 28%

Question: What about the “Estimated transpiration ratio (%) Average” value [4] of the same molecule?
Answer: 33%

Question: What about the “Estimated transpiration ratio (%) First” value [4] of the same molecule?
Answer: 35%

Question: What about the “Estimated transpiration ratio (%) Second” value [4] of the same molecule?
Answer: 31%

Question: And the “Ratio (%) of decrease in body weight of fruit” value (shortened to “Ratio (%) of decrease”) ([5]; dilution ratio 50 (20 g/L))?
Answer: 21.1%

Question: And the “Ratio (%) of decrease” value ([5]; dilution ratio 100 (10 g/L))?
Answer: 18.0%

Question: And the “Ratio (%) of decrease” value ([6]; dilution ratio 50 (20 g/L))?
Answer: 12.0%

Question: What about the “Ratio (%) of decrease” value ([6]; dilution ratio 100 (10 g/L)) of the same molecule?
Answer: 12.4%
